Some test systems named below: RXF 393; UO-31; LOX IMVI; SK-MEL-5; HOP-92; SK-MEL-2; SW-620; SNB-75; A549; COLO 205; HOP-62; OVCAR-8; U-251; CCRF-CEM; OVCAR-3; NCI-H226; NCI-H460; OVCAR-5; RPMI-8226; IGROV-1.
Holding throughout (assay): growth of human tumour cells (NCI), 48 h

The source of these data is ChEMBL document CHEMBL1201862, “PubChem BioAssay data set” (2004).

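Following 48 hours of exposure in 96-well plates, responses at five concentrations were used to interpolate endpoints linearly. GI50 = concentration required for 50% inhibition of growth.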 The source made the active and inactive calls. Cut-off read from the data, not from the text of the source: active = GI50 up to about 1.1 µM and inactive = higher. Bounds are passed on as bounds.

In the case of `Cc1cc(C)c(S(=O)(=O)N(CCCN)OCCCN)c(C)c1`, the GI50 with RXF 393 is > 100 µM (inactive); with UO-31, > 100 µM (inactive); with LOX IMVI, > 100 µM (inactive); with SK-MEL-5, > 100 µM (inactive); in the test with HOP-92, 64.1 µM (inactive); in the test on SK-MEL-2, > 100 µM (inactive). In addition, the GI50 in the test with SW-620 was > 100 µM (inactive); with SNB-75, > 100 µM (inactive); in the test on A549, > 100 µM (inactive); with COLO 205, > 100 µM (inactive); in the test on HOP-62, 6.52 µM (inactive); with OVCAR-8, > 100 µM (inactive). Besides, the GI50 in the test with U-251 was > 100 µM (inactive); with CCRF-CEM, > 100 µM (inactive); in the test with OVCAR-3, 56 µM (inactive); with NCI-H226 it was > 100 µM (inactive); in the test with NCI-H460, > 100 µM (inactive); in the test with OVCAR-5, 0.881 µM (active). Besides, the GI50 in the test on RPMI-8226 and in the test with IGROV-1 was > 100 µM (inactive) each time.
Regarding `COc1ccc(/C(C)=N/NC(=S)N(C)C)c(O)c1`, the GI50 was 5.65 µM (inactive) in the test on UO-31; 2.42 µM (inactive) in the test with LOX IMVI; 12.1 µM (inactive) in the test on SK-MEL-5; 29.5 µM (inactive) in the test on HOP-92; 14.4 µM (inactive) in the test with SK-MEL-2; 5.28 µM (inactive) in the test on SW-620. For the same compound, the GI50 in the test with SNB-75 was 43.8 µM (inactive); with A549 it was 4.52 µM (inactive); in the test with COLO 205, 2.59 µM (inactive); in the test on HOP-62, 5.61 µM (inactive); in the test on U-251, 7.83 µM (inactive); with CCRF-CEM, 4.49 µM (inactive). For the same compound, the GI50 in the test with OVCAR-3 was 4.85 µM (inactive); in the test on NCI-H226 it was 4.09 µM (inactive); with NCI-H460, 14 µM (inactive); with OVCAR-5, 3.42 µM (inactive); with RPMI-8226 it was 7.74 µM (inactive); with IGROV-1, 4.31 µM (inactive).
Regarding `CCC(=O)NC(Nc1ccccc1F)(C(F)(F)F)C(F)(F)F`, the GI50 in the test on RXF 393, with UO-31, in the test with LOX IMVI, in the test with SK-MEL-5, in the test on HOP-92 and in the test on SK-MEL-2 was > 100 µM (inactive) in each case. Moreover, the GI50 in the test with SW-620, with SNB-75, in the test with A549, in the test on COLO 205, in the test with OVCAR-8 and in the test on U-251 was > 100 µM (inactive) in each case. Moreover, the GI50 in the test with CCRF-CEM, in the test on OVCAR-3, in the test with NCI-H460, in the test on OVCAR-5, with RPMI-8226 and with IGROV-1 was > 100 µM (inactive) throughout.
On to `CC(=O)OCc1cc(=O)n(C)c2c3c4c(cc12)c(C)cc(=O)n4CO3`, for which the GI50 was 1.3 µM (inactive) in the test with RXF 393; 1.64 µM (inactive) in the test on UO-31; 1.26 µM (inactive) in the test on LOX IMVI; 1.66 µM (inactive) in the test with SK-MEL-5; 1.95 µM (inactive) in the test on HOP-92; 1.75 µM (inactive) with SK-MEL-2. Moreover, the GI50 in the test on SW-620 was 0.489 µM (active); in the test on SNB-75, 1.91 µM (inactive); in the test on A549, 1.69 µM (inactive); with COLO 205, 1.23 µM (inactive); in the test with HOP-62, 1.2 µM (inactive); with OVCAR-8, 0.555 µM (active). Moreover, the GI50 in the test with U-251 was 1.23 µM (inactive); in the test on CCRF-CEM it was 0.853 µM (active); with OVCAR-3, 1.45 µM (inactive); in the test on NCI-H226, 1.58 µM (inactive); with NCI-H460, 0.52 µM (active); with OVCAR-5 it was 2.73 µM (inactive). Besides, the GI50 in the test with RPMI-8226 was 1.51 µM (inactive); in the test on IGROV-1, 1.21 µM (inactive).
For `C1=Nc2ccccc2Cn2nncc21`, the GI50 in the test with RXF 393 is > 100 µM (inactive); with UO-31 it was 89.1 µM (inactive); in the test on LOX IMVI it was 46.9 µM (inactive); with SK-MEL-5, > 10 µM (inactive); in the test with HOP-92 it was 54.7 µM (inactive); with SK-MEL-2 it was 78.2 µM (inactive). In addition, the GI50 with SW-620 was 34 µM (inactive); with A549, > 100 µM (inactive); in the test on COLO 205, > 100 µM (inactive); with HOP-62 it was > 100 µM (inactive); in the test with OVCAR-8, > 100 µM (inactive); with U-251 it was 26 µM (inactive). In addition, the GI50 with CCRF-CEM was 49.9 µM (inactive); in the test with OVCAR-3 it was > 100 µM (inactive); in the test on NCI-H226, > 100 µM (inactive); in the test with NCI-H460, > 100 µM (inactive); with OVCAR-5, > 100 µM (inactive); with RPMI-8226 it was > 100 µM (inactive). Moreover, the GI50 in the test on IGROV-1 is 67.5 µM (inactive).
As for `CCCCC1(C2c3ccccc3Oc3ccccc32)C(=O)N(c2ccccc2)N(c2ccccc2)C1=O`, the GI50 in the test with RXF 393 is 19.9 µM (inactive); in the test on UO-31, > 83.2 µM (inactive); in the test on LOX IMVI, 41 µM (inactive); in the test with SK-MEL-5, 34.3 µM (inactive); with HOP-92, 97.5 µM (inactive); with SK-MEL-2, > 100 µM (inactive). The GI50 with SW-620 is 56.6 µM (inactive); with SNB-75, 86.7 µM (inactive); with A549, 39.1 µM (inactive); in the test with COLO 205, > 100 µM (inactive); in the test on HOP-62, > 100 µM (inactive); in the test with OVCAR-8, > 100 µM (inactive). Moreover, the GI50 in the test with U-251 is 31.3 µM (inactive); with CCRF-CEM, 22.5 µM (inactive); in the test on OVCAR-3, 42.3 µM (inactive); with NCI-H226, > 80.9 µM (inactive); in the test on NCI-H460 it was 47.8 µM (inactive); with OVCAR-5 it was > 100 µM (inactive). Moreover, the GI50 with RPMI-8226 is 27.7 µM (inactive); with IGROV-1, > 72.3 µM (inactive).
Turning to `Cn1c(/C=C/CO)c(CO)c2c1C(=O)C=C(N1CC1)C2=O` [APAZIQUONE], the GI50 in the test on RXF 393 was < 0.01 µM (active); in the test on UO-31, 0.0142 µM (active); in the test on LOX IMVI, < 0.01 µM (active); with SK-MEL-5, < 0.01 µM (active); with HOP-92, 0.222 µM (active); in the test with SK-MEL-2 it was < 0.01 µM (active). For the same compound, the GI50 is < 0.01 µM (active) with SW-620; < 0.01 µM (active) with SNB-75; < 0.01 µM (active) in the test with A549; < 0.0122 µM (active) in the test on COLO 205; < 0.01 µM (active) in the test on HOP-62; < 0.0156 µM (active) in the test on OVCAR-8. The GI50 in the test on U-251 was < 0.01 µM (active); with CCRF-CEM, 0.184 µM (active); with OVCAR-3 it was 0.0206 µM (active); in the test on NCI-H226, 0.0185 µM (active); with NCI-H460 it was < 0.01 µM (active); in the test on OVCAR-5, < 0.0122 µM (active). The GI50 in the test on RPMI-8226 was 0.0172 µM (active); with IGROV-1, 0.0244 µM (active).
